Laboratory results taken from patent publication US20260209226A1 (EmpathBio, Inc., priority 2023, published 2026).
“And” between values parts separate entries of the source, which are not always exact repeats. Equal values may be shown once. Read-outs that look alike come from different tables or passages of the source.

Experiments:
Format in all cases: cell-based
[1] = biological target: T1, Human Serotonin Transporter (SERT) (Homo sapiens, UniProt P31645); test: Human Serotonin Transporter (SERT) Uptake Inhibition Assay ([3H]-Serotonin uptake in HEK cells); details: HEK cells expressing recombinant SERT, individual experiments separated by commas; for SERT UPTAKE INHIBITION (%) @1 uM: 1 uM test compound; for SERT UPTAKE INHIBITION (%) @100 uM: 100 uM test compound; for inhibition at 10 µM: HEK293, 10 uM test compound; for inhibition at 100 µM: HEK293, 100 uM test compound; for inhibition at 1 µM: HEK293, 1 uM test compound
T1 construct: expressed in transfected cells; host or cells: HEK cells
Description: Compound activity is assessed using an in vitro assay. Briefly, HEK cells expressing recombinant serotonin transporter (SERT) are plated at 50,000 cells/well on a 96 well plate pre-coated with Matrigel one day prior to the experiment. Culture medium (DMEM/FBS) is removed and 30 μl of assay buffer (Tris-HCl 50 mM, EDTA 4 mM, BDA 0.1%) with the desired concentration of test compound is added. The plate is incubated at 37° C. for 15 minutes. Assay buffer (30 μl) containing the same concentration of compound diluted in [^3H]-Serotonin uptake buffer (final concentration 10 nM) is added to each well and the plate is incubated at 37° C. for 5 minutes. The reaction mixture is removed, and the cells are washed with 100 μl ice-cold assay buffer twice. Lysis buffer (50 μl) is added to the cells followed by a 5 minute incubation with gentle shaking at room temperature. The lysate is transferred to a 96 well isoplate. Optiphase supermix (100 μl) is added to each well with complete mixing. Radioactivity is counted with Microbeta Counter and reported as counts per minute (CPM). Fluoxetine is used as a control to measure non-specific uptake and for data normalization. Percent inhibition of [^3H]-Serotonin uptake calculations: 100×(1−(CPMtest sample−CPMnon_specific uptake)/(CPMMAX−CPMMIN)) are summarized in Table 2. Subsequent experiments using the same assay were performed with select compounds with a greater range of concentrations (10 half-log dilutions from a top concentration of 100 μM), allowing for the determination of IC50s. IC50s were determined using the log(inhibitor) vs. normalized response—Variable slope model in GraphPad Prism 10.1.0 and are summarized in Table 3.

[2] = biological target: T2, Human Dopamine Transporter (DAT) (Homo sapiens, UniProt Q01959); test: Human Dopamine Transporter (DAT) Uptake Inhibition Assay ([3H]-Dihydroxyphenylethylamine uptake in HEK cells); details: HEK cells expressing recombinant DAT, individual experiments separated by commas
T2 construct: expressed in transfected cells; host or cells: HEK cells
Description: (§1) Compound activity is assessed using an in vitro assay. Briefly, HEK cells expressing recombinant dopamine transporter (DAT) are plated at 50,000 cells/well on a 96 well plate pre-coated with Matrigel one day prior to the experiment. Culture medium (DMEM/FBS) is removed and 30 μl of assay buffer (Tris-HCl 50 mM, EDTA 4 mM, BDA 0.1%) with the desired concentration of test compound is added. The plate is incubated at 37° C. for 15 minutes. Assay buffer (30 μl) containing the same concentration of compound diluted in [^3H]-Dihydroxyphenylethylamine uptake buffer (final concentration 20 nM) is added to each well and the plate is incubated at 37° C.; for 5 minutes. The reaction mixture is removed, and the cells are washed with 100 μl ice-cold assay buffer twice. Lysis buffer (50 μl) is added to the cells followed by a 5 minute incubation with gentle shaking at room temperature. The lysate is transferred to a 96 well isoplate. Optiphase supermix (100 μl) is added to each well with complete mixing. Radioactivity is counted with Microbeta Counter and reported as CPM. Nomifensine is used as a control to measure non-specific uptake and for data normalization. Percent inhibition of [^3H]-Dihydroxyphenylethylamine uptake calculations: 100×(1−(CPMtest sample−CPMnon-specific uptake)/(CPMMAX−CPMMIN)). Test compounds were screened at 10 concentrations at half-log dilutions from a top concentration of 100 μM. IC50s were determined using the log(inhibitor) vs. normalized response—Variable slope model in GraphPad Prism 10.1.0 and are summarized in Table 3.

[3] = biological target: T3, Human Norepinephrine Transporter (NET) (Homo sapiens, UniProt P23975); test: Human Norepinephrine Transporter (NET) Uptake Inhibition Assay ([3H]-Norepinephrine uptake in HEK cells); details: HEK cells expressing recombinant NET, individual experiments separated by commas
T3 construct: expressed in transfected cells; host or cells: HEK cells
Description: as §1, with “Norepinephrine” for “dopamine”, “(NET)” for “(DAT)”, “[^3H]-Norepinephrine” for “[^3H]-Dihydroxyphenylethylamine”, “C.” for “C.;”, “Desiparmine” for “Nomifensine”, “100×(1−CPMtest sample−CPMnon_specific” for “100×(1−(CPMtest sample−CPMnon-specific”

[4] = 10 half-log dilutions from 100 μM, read-out: DAT Uptake Inhibition IC50
[5] = 10 half-log dilutions from 100 μM, read-out: NET Uptake Inhibition IC50
[6] = 10 half-log dilutions from 100 μM, read-out: SERT Uptake Inhibition IC50

T1 sequence (P31645 whole entry): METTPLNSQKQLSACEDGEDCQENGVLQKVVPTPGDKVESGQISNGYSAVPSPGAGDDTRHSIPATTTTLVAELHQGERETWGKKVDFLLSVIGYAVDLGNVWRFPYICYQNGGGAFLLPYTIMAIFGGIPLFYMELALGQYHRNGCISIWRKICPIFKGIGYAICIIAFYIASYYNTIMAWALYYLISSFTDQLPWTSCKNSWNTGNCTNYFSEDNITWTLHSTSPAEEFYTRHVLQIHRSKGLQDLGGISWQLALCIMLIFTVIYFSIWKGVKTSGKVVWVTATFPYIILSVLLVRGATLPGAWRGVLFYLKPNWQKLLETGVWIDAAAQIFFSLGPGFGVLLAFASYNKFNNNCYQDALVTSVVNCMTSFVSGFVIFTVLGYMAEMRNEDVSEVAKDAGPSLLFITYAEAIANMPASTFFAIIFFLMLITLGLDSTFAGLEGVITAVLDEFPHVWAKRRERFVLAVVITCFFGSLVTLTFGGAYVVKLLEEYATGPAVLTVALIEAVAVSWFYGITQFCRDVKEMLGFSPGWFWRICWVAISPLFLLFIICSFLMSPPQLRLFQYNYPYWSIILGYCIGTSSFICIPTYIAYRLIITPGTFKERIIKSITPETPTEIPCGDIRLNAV
T2 sequence (Q01959 whole entry): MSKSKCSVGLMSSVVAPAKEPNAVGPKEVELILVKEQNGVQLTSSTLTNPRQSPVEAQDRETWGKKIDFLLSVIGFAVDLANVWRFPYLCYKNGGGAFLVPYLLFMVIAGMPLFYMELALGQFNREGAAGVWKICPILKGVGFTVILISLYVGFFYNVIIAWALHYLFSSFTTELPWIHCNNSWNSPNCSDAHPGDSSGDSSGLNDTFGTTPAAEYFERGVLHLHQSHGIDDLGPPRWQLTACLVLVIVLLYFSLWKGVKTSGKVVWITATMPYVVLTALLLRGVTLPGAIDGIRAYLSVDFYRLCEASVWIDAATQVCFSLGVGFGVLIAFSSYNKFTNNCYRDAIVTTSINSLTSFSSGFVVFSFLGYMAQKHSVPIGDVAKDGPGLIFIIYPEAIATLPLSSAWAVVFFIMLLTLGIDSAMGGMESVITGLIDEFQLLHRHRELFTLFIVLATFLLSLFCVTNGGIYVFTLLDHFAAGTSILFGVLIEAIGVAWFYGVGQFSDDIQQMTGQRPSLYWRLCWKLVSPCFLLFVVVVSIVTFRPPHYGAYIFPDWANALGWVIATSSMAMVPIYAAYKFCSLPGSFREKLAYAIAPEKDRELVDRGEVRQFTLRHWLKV
T3 sequence (P23975 whole entry): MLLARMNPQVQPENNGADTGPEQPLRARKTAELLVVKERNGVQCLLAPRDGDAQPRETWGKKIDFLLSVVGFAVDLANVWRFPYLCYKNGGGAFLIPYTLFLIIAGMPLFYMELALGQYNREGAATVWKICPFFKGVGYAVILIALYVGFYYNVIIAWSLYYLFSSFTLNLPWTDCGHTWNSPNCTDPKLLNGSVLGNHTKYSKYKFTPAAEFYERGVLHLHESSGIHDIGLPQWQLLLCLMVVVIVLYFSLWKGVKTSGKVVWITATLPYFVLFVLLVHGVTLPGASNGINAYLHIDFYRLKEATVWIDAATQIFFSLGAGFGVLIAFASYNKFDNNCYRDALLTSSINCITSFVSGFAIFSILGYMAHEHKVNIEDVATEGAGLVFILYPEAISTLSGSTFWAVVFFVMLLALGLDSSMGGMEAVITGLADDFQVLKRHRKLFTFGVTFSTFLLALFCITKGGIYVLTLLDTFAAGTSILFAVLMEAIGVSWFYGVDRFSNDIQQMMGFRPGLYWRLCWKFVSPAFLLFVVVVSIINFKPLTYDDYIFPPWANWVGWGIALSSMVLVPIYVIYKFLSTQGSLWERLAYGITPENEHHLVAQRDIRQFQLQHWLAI

Compound	SERT UPTAKE INHIBITION (%) @100 uM [1]	inhibition at 10 µM [1] [%]	inhibition at 100 µM [1] [%]	IC50 [2, 4] [µM]	IC50 [3, 5] [µM]	IC50 [1, 6] [µM]	further results
CC(N)Cc1ccn2ncnc2c1 (stereo not drawn) [Compound 7]	84.23% and 59.35%						SERT UPTAKE INHIBITION (%) @1 uM [1]: 11.89% and −1.06%
CC(N)Cc1ccc2conc2c1 (stereo not drawn) [Compound 11, 1-(2,1-benzoxazol-6-yl) propan-2-amine]		45.5	96.6				
CNC(C)Cc1ccc2c(c1)OCO2 (stereo not drawn) [18 MDMA, 3,4-methylenedioxymethamphetamine, reference compound]	88.7% and 98.0% and 86.2%	53.3	85.1	5.29			IC50 ([2]; DAT Uptake Inhibition IC50, 10 half-log dilutions from 100 μM): 3.5 µM and 5.48 µM and 7.48 µM and 10.3 µM and 13.5 µM; IC50 ([3]; NET Uptake Inhibition IC50, 10 half-log dilutions from 100 μM): 1.4 µM and 2.37 µM and 0.93 µM and 1.34 µM and 2.27 µM and 2.89 µM; SERT UPTAKE INHIBITION (%) @1 uM [1]: 25.0% and −1.67%; SERT UPTAKE INHIBITION (%) @10 uM ([1]; 10 uM test compound, 10 µM): 70.1%; IC50 ([1]; SERT Uptake Inhibition IC50, 10 half-log dilutions from 100 μM): 5.25 µM and 5.08 µM and 3.19 µM and 1.48 µM and 2.07 µM and 2.21 µM
CN[C@@H](C)Cc1ccc2ncsc2c1 [Compound 16, (S)-1-(benzo[d]thiazol-6-yl)-N-methylpropan-2-amine]		57.7	99.1	> 100	4.2	5.1	
CC(N)Cc1ccc2ncoc2c1 (stereo not drawn) [Compound 9, 1-(benzo[d]oxazol-6-yl)propan-2-amine]		-2.39	87.9				
CNC(C)Cc1ccc2conc2c1 (stereo not drawn) [Compound 10, [1-(2,1-benzoxazol-6-yl)propan-2-yl](methyl)amine]		48.3	96.8				
CNC(C)Cc1ccn2ccnc2c1 (stereo not drawn) [Compound 1]			91.6				inhibition at 1 µM [1]: 3.6%
CC(N)Cc1ccc2scnc2c1 (stereo not drawn) [Compound 8]	90.93%	68.7	82.4	20.7	> 100	11.5	inhibition at 1 µM [1]: 24%
CC(N)Cc1ccn2ccnc2c1 (stereo not drawn) [Compound 5]			90.2				inhibition at 1 µM [1]: -0.48%
CC(N)Cc1ccc2ncsc2c1 (stereo not drawn) [Compound 6]	96.89%		94.6	> 100	1.1	7.5	SERT UPTAKE INHIBITION (%) @1 uM [1]: 51.1% and 4.94%
CNC(C)Cc1ccc2scnc2c1 (stereo not drawn) [Compound 4]	87.43%	61.8	91.5	35.8	8.3	11.3	inhibition at 1 µM [1]: 20.2%
CNC(C)Cc1ccc2ncsc2c1 (stereo not drawn) [Compound 2]	93.94% and 91.08%	67.9	88.8	21.8	4.7	10.3	SERT UPTAKE INHIBITION (%) @1 uM [1]: 43.44% and −5.16%
C[C@@H](N)Cc1ccc2ncsc2c1 [Compound 15, (R)-1-(benzo[d]thiazol-6-yl)propan-2-amine]		38	97.5				
CNC(C)Cc1ccc2ncnn2c1 (stereo not drawn) [Compound 12, methyl(1-{[1,2,4]triazolo[1,5-a]pyridin-6-yl}propan-2-yl)amine]		0.25	83.2				
CC(N)Cc1ccc2ncnn2c1 (stereo not drawn) [Compound 13]		1.34	73.1				
CN[C@H](C)Cc1ccc2ncsc2c1 [Compound 17, (R)-1-(benzo[d]thiazol-6-yl)-N-methylpropan-2-amine]		32.5	95.7				
CNC(C)Cc1ccn2ncnc2c1 (stereo not drawn) [Compound 3]	69.13%		78.4				SERT UPTAKE INHIBITION (%) @1 uM [1]: −1.21% and −1.77%
C[C@H](N)Cc1ccc2ncsc2c1 [Compound 14, (S)-1-(benzo[d]thiazol-6-yl)propan-2-amine]		46.6	98.9	> 100	5.8	6.6	
